Test results from patent US8716436B2 (priority 2010, dated 2014).
≈ marks a conversion by molar mass, not a printed value. Where two headings read alike, the source gives them in different places. Where a SMILES comes first, the peptide text is derived from it.

Tests used:
human mu opioid receptor = target: T1, human mu opioid receptor (Homo sapiens, UniProt P35372); test: biochemical; format: binding
T1 construct: expressed in transfected cells; host or cells: CHO cells

[1] = target: human delta opioid receptor (Homo sapiens, UniProt P41143); test: biochemical; format: binding
human delta opioid receptor, sequence (P41143 whole entry): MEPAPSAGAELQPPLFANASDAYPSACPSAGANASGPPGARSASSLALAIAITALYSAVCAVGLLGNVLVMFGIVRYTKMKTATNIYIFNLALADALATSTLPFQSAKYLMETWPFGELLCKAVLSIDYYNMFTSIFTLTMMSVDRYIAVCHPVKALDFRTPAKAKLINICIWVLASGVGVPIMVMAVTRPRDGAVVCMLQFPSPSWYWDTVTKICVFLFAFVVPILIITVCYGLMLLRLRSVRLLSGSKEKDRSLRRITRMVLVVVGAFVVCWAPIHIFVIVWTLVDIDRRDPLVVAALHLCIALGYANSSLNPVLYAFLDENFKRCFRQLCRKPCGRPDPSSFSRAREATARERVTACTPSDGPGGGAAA

[2] = target: T2, cloned human mu opioid receptor (Homo sapiens, UniProt P35372); test: biochemical; format: biochemical
T2 construct: expressed in transfected cells
T2 sequence (P35372 whole entry): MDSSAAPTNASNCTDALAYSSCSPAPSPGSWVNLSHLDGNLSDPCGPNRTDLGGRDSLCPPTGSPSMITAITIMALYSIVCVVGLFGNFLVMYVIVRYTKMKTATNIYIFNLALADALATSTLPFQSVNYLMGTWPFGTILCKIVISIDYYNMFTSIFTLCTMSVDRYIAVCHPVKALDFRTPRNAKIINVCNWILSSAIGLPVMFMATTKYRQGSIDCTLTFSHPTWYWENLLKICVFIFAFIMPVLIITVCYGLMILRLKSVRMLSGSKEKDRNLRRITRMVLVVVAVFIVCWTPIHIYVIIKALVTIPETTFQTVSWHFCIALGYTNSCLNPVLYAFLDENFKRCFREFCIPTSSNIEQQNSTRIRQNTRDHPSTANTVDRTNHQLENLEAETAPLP

[3] = target: T3, cloned human delta opioid receptor (Homo sapiens, UniProt P41143); test: biochemical
T3 construct: expressed in transfected cells
T3 sequence (P41143 whole entry): as the sequence (P41143 whole entry) above

[4] = target: T3, cloned human delta opioid receptor; test: 35S-GTPγS functional assay, delta antagonism against ED80 dose of SNC80; format: biochemical; settings: for Delta Antagonist efficacy: against ED80 dose of SNC80
[5] = Tail-flick (TF) antinociception after i.v. administration; format: in vivo; settings: rat; for Antinociception (tail-flick): i.v., 5.6 mg/kg
[6] = Spared nerve injury (SNI) neuropathic pain, Randall-Selitto paw pressure; format: in vivo; settings: rat SNI; for Reversal time of hyperalgesia (significantly above vehicle): intrathecal cumulative doses
[7] = Tolerance: intrathecal cumulative dose-response in tail-flick test before and after 1 week osmotic minipump; format: in vivo; settings: rat; for ED50 antinociception on Day 7 after minipump implantation: morphine 2 μg/hr or analog 0.056 μg/hr for about 7 days; for ED50 antinociception in opioid naïve animals: before minipump
[8] = Rotorod test of motor coordination; settings: rat, cumulative i.v. doses
[9] = Morris Water Maze (spatial memory); settings: rat, after 4 days of training
[10] = Conditioned place preference (CPP); settings: rat, i.v., doses producing maximal antinociception
glia = test: Glial activation (GFAP and phospho-p38 staining) after 1 week of treatment; settings: rat, after 1 week intrathecal treatment
[11] = target: human kappa opioid receptor (Homo sapiens, UniProt P41145); test: biochemical; format: binding
human kappa opioid receptor, sequence (P41145 whole entry): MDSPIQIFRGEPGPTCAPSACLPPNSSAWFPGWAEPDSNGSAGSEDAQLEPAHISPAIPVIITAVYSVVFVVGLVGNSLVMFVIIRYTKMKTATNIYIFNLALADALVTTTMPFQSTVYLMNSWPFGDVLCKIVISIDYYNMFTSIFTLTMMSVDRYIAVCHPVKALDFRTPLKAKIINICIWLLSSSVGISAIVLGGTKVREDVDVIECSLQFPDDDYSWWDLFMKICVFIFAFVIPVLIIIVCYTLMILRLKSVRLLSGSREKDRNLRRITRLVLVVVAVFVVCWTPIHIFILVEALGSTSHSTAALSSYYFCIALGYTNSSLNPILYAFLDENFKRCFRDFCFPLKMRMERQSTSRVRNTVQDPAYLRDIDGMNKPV

[12] = target: cloned human kappa opioid receptor (Homo sapiens, UniProt P41145); test: biochemical
cloned human kappa opioid receptor, sequence (P41145 whole entry): as above

[13] = rat
Solubility = format: physicochemical
Method: The solubility of the peptides of Formula I (e.g., in saline or physiologic buffer) typically is enhanced relative to the prior art tetrapeptide analogs of the endomorphins Addition of a hydrophilic amino acid and amidated C-terminus to the relatively hydrophobic tetrapeptide sequences Tyr-cyclo[D-Lys-Trp-Phe] (SEQ ID NO:10) and Tyr-cyclo[D-Lys-Phe-Phe] […] For example, Compound 1 was soluble in water, saline and 20% PEG/saline at about 43, 21 and 90 mg/mL, respectively, compared to less than about 2 mg/mL for the previously described compounds. While increases in solubility are associated with improved pharmaceutical delivery properties, higher solubility is also often associated with reduced functional activity (e.g., receptor binding) that may depend on lipophilicity.

T1 sequence (P35372 whole entry): as the sequence (P35372 whole entry) above

NC(=O)[C@@H]1CCCCNC(=O)CC[C@@H](NC(=O)[C@@H](N)Cc2ccc(O)cc2)C(=O)N[C@@H](Cc2ccccc2)C(=O)N[C@@H](Cc2ccccc2)C(=O)N1 [Compound 2, Tyr-c[D-Glu-Phe-Phe-Lys]-NH2]
Ki (human mu opioid receptor): 0.73 nM | Ki [1]: 69 nM | EC50 [2]: 0.99 nM | EC50 [3]: > 100000 nM | IC50 [4]: 2750 nM | Delta Antagonist efficacy [4]: 51 | Antinociception (TF latency) relative to morphine ([5]; cumulative i.v. doses, at 135 and 155 minutes): significantly longer antinociception | Antinociception (tail-flick) [5]: antinociception similar to the 10 mg dose of morphine | Reversal time of hyperalgesia (significantly above vehicle) [6]: ~260 min | Shift in ED50 (tolerance) ([7]; after 1 week minipump): about 8.5 fold | ED50 antinociception on Day 7 after minipump implantation [7]: about 0.11±0.02 μg | Potency relative to morphine on a molar basis ([7]; tail-flick): about 40 fold | ED50 antinociception in opioid naïve animals ([7]; tail-flick): 0.01 µg | Motor impairment (rotorod) [8]: significantly less than that of morphine | Impairment of spatial memory (latency to and distance from platform) [9]: did not produce significant impairment | Conditioned place preference (time spent on the drug side) [10]: no significant CPP | Glial activation (integrated density of GFAP and pp38 staining) (glia): activation was not significantly different from vehicle

N[C@@H](Cc1ccc(O)cc1)C(=O)N[C@@H]1CCCCNC(=O)[C@H](Cc2ccccc2)NC(=O)[C@H](Cc2ccccc2)NC1=O [ck2, Tyr-c[D-Lys-Phe-Phe], reference compound] (HELM PEPTIDE1{Y.[dK].F.F}$PEPTIDE1,PEPTIDE1,2:R3-4:R2$$$V2.0; bridges inferred)
Ki (human mu opioid receptor): 0.36 nM | Ki [1]: 3 nM | Selectivity Delta/Mu (binding) [1]: 9 | Ki [11]: 12 nM | Selectivity Kappa/Mu (binding) [11]: 33 | EC50 [2]: 0.15 nM | EC50 [3]: 7 nM | Selectivity delta/mu (activation) [3]: 44 | EC50 [12]: 206 nM | Selectivity kappa/mu (activation) [12]: 1374

CN1CC[C@]23c4c5ccc(O)c4O[C@H]2[C@@H](O)C=C[C@H]3[C@H]1C5 [Morphine, morphine, reference compound]
Dose required to fully (100%) reverse hyperalgesia ([6]; intrathecal): about 1.14 μg | Reversal time of hyperalgesia (significantly above vehicle) [6]: about 80 min | ED50 antinociception on Day 7 after minipump implantation [7]: 16 ± 3.3 µg | ED50 antinociception in opioid naïve animals ([7]; tail-flick): 0.253 µg | Self-administration [13]: resulted in significant self-administration | Motor impairment (rotorod) [8]: significantly above that of vehicle controls | Impairment of spatial memory (latency to and distance from platform) [9]: produced impairment of spatial memory | Conditioned place preference (time spent on the drug side) [10]: increase in the time spent on the drug side | Glial activation (integrated density of GFAP and pp38 staining) (glia): produced significant glial activation

Tyr-c[D-Lys-Trp-Phe-Glu]-Gly-NH2 [Compound 3]
Delta Antagonist efficacy [4]: full efficacy delta antagonism

NC(=O)[C@@H]1CC(=O)NCCCC[C@@H](NC(=O)[C@@H](N)Cc2ccc(O)cc2)C(=O)N[C@@H](Cc2c[nH]c3ccccc23)C(=O)N[C@@H](Cc2ccccc2)C(=O)N1 [Compound 5, Tyr-c[D-Lys-Trp-Phe-Asp]-NH2]
Ki (human mu opioid receptor): 0.43 nM | Ki [1]: 140 nM | EC50 [2]: 0.22 nM | EC50 [3]: > 100000 nM | IC50 [4]: 557 nM | Delta Antagonist efficacy [4]: 100 | Conditioned place preference (time spent on the drug side) [10]: no significant CPP | Glial activation (integrated density of GFAP and pp38 staining) (glia): activation was not significantly different from vehicle

NC(=O)[C@@H]1CCC(=O)NCCCC[C@@H](NC(=O)[C@@H](N)Cc2ccc(O)cc2)C(=O)N[C@@H](Cc2c[nH]c3ccccc23)C(=O)N[C@@H](Cc2ccccc2)C(=O)N1 [Compound 1, Tyr-c[D-Lys-Trp-Phe-Glu]-NH2]
Ki (human mu opioid receptor): 0.49 nM | Ki [1]: 132 nM | Agonist EC50 mu [2]: significantly greater potency than the reference compound, DAMGO | Agonist efficacy at the mu receptor [2]: full efficacy agonist | EC50 [2]: 0.15 nM | EC50 [3]: > 100000 nM | IC50 [4]: 105 nM | Delta Antagonist efficacy [4]: full efficacy delta antagonism | Delta Antagonist efficacy ([4]; listed as Comp. 1): 93 | solubility (Solubility; 20% PEG/saline, read-out: Solubility in 20% PEG/saline): ~90 mg/mL (≈ 120 mM) | solubility (Solubility; saline, read-out: Solubility in saline): ~21 mg/mL (≈ 27.9 mM) | solubility (Solubility; water, read-out: Solubility in water): ~43 mg/mL (≈ 57.1 mM) | Antinociception (TF) relative to morphine ([5]; cumulative doses, about 140 to 180 minutes after injection): greater antinociception | Antinociception (tail-flick) [5]: antinociception similar to the 10 mg dose of morphine | Time at which scores were significantly above those of morphine ([6]; intrathecal): 155 to 215 min | Glial activation (integrated density of GFAP and pp38 staining) (glia): activation was not significantly different from vehicle

N[C@@H](Cc1ccc(O)cc1)C(=O)N[C@@H]1CCCCNC(=O)[C@H](Cc2ccccc2)NC(=O)[C@H](Cc2c[nH]c3ccccc23)NC1=O [ck1, Tyr-c[D-Lys-Trp-Phe], reference compound] (HELM PEPTIDE1{Y.[dK].W.F}$PEPTIDE1,PEPTIDE1,2:R3-4:R2$$$V2.0; bridges inferred)
Ki (human mu opioid receptor): 0.32 nM | Ki [1]: 28 nM | Selectivity Delta/Mu (binding) [1]: 90 | Ki [11]: 35 nM | Selectivity Kappa/Mu (binding) [11]: 111 | EC50 [2]: 0.21 nM | EC50 [3]: 138 nM | Selectivity delta/mu (activation) [3]: 658 | EC50 [12]: 470 nM | Selectivity kappa/mu (activation) [12]: 2236
